Measured values reported in patent US6291247A, “Methods of screening for factors that disrupt neurotrophin conformation and reduce neurotrophin biological activity” (priority 1996, dated 2001).
Bridges are numbered along the chain shown (N, C = ends).

Key:
[1] = test system: DRG neurons; experiment: BDNF-dependent neurite outgrowth of DRG neurons; assay type: cell-based, chick; settings: n = 8
Method: Dissosiated cells enriched for sensory neurons were prepared from ED8 chick DRG as described (Dostaler, S. M. et al. Characterization of a distinctive motif of the low molecular weight neurotrophin receptor that modulates NGF-mediated neurite growth. Eur. J. Neurosci. 8, 870-879 (1996)). Neurons were seeded at a density of 800-1000 cells/well in Ham's F-12 containing 5% FCS and NGF at 10 pM into wells of Terasaki plates treated with polyysine. The cells were incubated with the indicated additives at 37° C. in a 5% CO2 atmosphere. The cells on the entire lower horizontal surface of the well were scored for neurite growth at 18-20 hours using an inverted microscope fitted with phase contrast optics. A neurite was scored if its caliber from the origin to terminal was constant and its length was equal to or greater than 1.5 cell body diameters. Neurite growth was corrected for background (no NGF).
Human recombinant BDNF and human recombinant NT-3 were obtained from Alomone Laboratories (Israel). The iodination, crosslinking, and binding experiments using BDNF and NT-3 were performed using the methods described above for NGF. Neurite outgrowth assays were performed as described in the presence of 4.0 nM NT-3 or 8.0 nM BDNF.

[2] = test system: TrkA receptor; experiment: NGF-dependent TrkA phosphorylation in PC12 cells, metal ions; assay type: cell-based, rat
Method: Zn^2+ and/or other additives were allowed to equilibrate with NGF for 2 hours at 4° C. prior to addition of cells. PC12 cells were used at 10^6 cells/ml and incubated with 40 pM NGF for 15 minutes at 37° C. At the conclusion of the reaction, cells were washed, lysed in TBS containing 10% glycerol, 1% Triton X-100, 1 mM PMSF, 10 μg/ml aprotinin, 1 μg/ml leupeptin and 500 μM orthovanadate (lysis buffer, 10^8 cells/ml). The cellular debris was removed by centrifugation and the soluble proteins incubated with an anti-TrkA cytoplasmic domain antibody. Antibody complexes were isolated by incubating with immobilized protein G (Pierce Ultralink; 70 μl of a 50% slurry) for 2 hours at 4° C. The solid phase was washed extensively with lysis buffer and the pellet dissolved in SDS sample buffer. Proteins were resolved using 6% SDS PAGE and Western analysis performed with anti-phosphotyrosine 4G10 (UBI) visualized with ECL (Amersham).

[3] = test system: BDNF; settings: Rashid et al. 1995; cited from earlier work
[4] = test system: p75; experiment: Affinity cross-linking of 125I-NGF to p75 on PC12 cells; assay type: binding, rat; settings: for Inhibition of p75 Interaction: 0.1 nM 125I-NGF, PC12 cells
Method: The ability of the peptides under study to interfere with binding of NGF to NGF receptors was evaluated by analysis of inhibition of the chemical cross-linking of ^251 I-NGF to the common neurotrophin receptor p75 (Chao, J. Neurobiol. 25:1373-1385 (1994)) and the specific NGF receptor TrkA (Barbacid, J. Neurobiol. 25: 1386-1403 (1994)). Immunoprecipitation and polyacrylamide gel electrphoresis of cross linked receptors allowed identification of both receptors, as shown in FIG. 7A. […] At concentrations of 200 μM, neither R11(l) nor R11(m) were able to inhibit greater than 50% of the observed ^125 I-labelling.
The ability of the peptides derived from the 68-58/108-110 region of NGF to antagonize NGF interaction with the p75 and TrkA receptors was determined The peptides tested were bicyclic (BC) 68-58/108-110, cyclic (C) 68-58/108-110, and linear (L) 68-58/108-110, each of which are illustrated in FIGS. 2 and 5D
Receptor cross-linking studies were performed on PC12 rat pheochromocytoma cells (ATCC CRL 1721; Greene et al., Proc. Natl. Acad. Sci. USA 73: 2424-2432 (1976)) which were maintained in RPMI1640 (Gibco) supplemented with 10% fetal calf serum (Gibco). Cells were harvested by incubation and trituration in Ca^2+ and Mg^2+ free Gey's balanced salt solution, washed and suspended in 10 mM HEPES buffer (pH 7.35) containing 125 mM NaCl, 4.8 mM KCl, 1.3 mM CaCl2, […], 1.2 mM KH2 PO4, 1 g/L sucrose and 1 g/L bovine serum albumin (HEPES Krebs Ringer buffer, HKR buffer) at 10^6 cells/mL. Subsequent procedures were carried out at 4° C. unless otherwise noted.
For receptor crosslinking, ^125 I-NGF was prepared by the method of Sutter et al. (J. Biol. Chem. 254: 5972-5982 (1979)) from NGF isolated from mouse submaxillary gland (as described in Mobley et al., Biochemistry 15:1543 (1976)) obtained from Cedarlane.
[…] Control PC12 cells were incubated in HKR buffer in the presence of ^125 I-NGF only (no NGF peptide).
Receptor proteins were cross-linked with either 0.4 mM bis(sulfosuccinimidyl)suberate (BS^3, Pierce) for TrkA, or a combination of 2 mM […] (EDC) and 2 mM N-hydroxysulfosuccinimide (S-NHS) for p75^NTR as indicated. All cross-linking agents (from Pierce) were dissolved in water and added in 20 μL aliquots and the reaction allowed to proceed for 30 min at 25° C. On completion of the cross-linking reaction, the cells were washed three times in HKR buffer with BSA at 4° C. to remove excess free radiolabelled ligand and reagents. The cells were solubilized in 100 μL SDS sample buffer Samples were separated on a modified Laemmli discontinues acrylamide gel system (Laemmli, Nature 227:680 (1970)) using 4% SDS-PAGE stacking gel and a gradient urea polyacrylamide separating gel ranging from 4.5% acrylamide/18% urea to 7.5% acrylamide/48% urea. The gels were fixed and processed for autoradiography using -70° C. exposure with Kodak XAR film and manual processing (FIG. 7B).
For positive receptor identification, immunoprecipitation studies were performed. Samples of 10^7 cells in 1 mL HKR buffer were cross-linked under the conditions described above, washed in HKR buffer and solubilized in non-denaturing lysis buffer (1% NP40, 10% glycerol, 1 mM phenylmethylsulfonylfluoride, 10 μg/mL leupeptin and 0.5 mM o-vanadate in Tris-buffered saline) (Kaplan et al., Nature 350:1 158-160 (1991)). The solutions were clarified by centrifugation and immunoprecipitated with either mAb 192 (monoclonal antibody for p75; Cedarlane) or rabbit anti-TrkA, which had been raised against a COOH-terminal peptide of TrkA. The ^125 I-NGF cross-linked receptor-antibody complexes were isolated using 50 μL of a 50% solution of rabbit anti-mouse agarose (Sigma; for mAb 192) or protein A-Sepharose (Pharmcia; for anti-Trk) equilibrated in lysis buffer. Immunoprecipitates were washed three times in lysis buffer and the pellets denatured in SDS reducing sample buffer. […]

Compound | Neurite Outgrowth, BDNF (8.0 nM) ([1]; 30 μM Zn2+) | Neurite Outgrowth, BDNF (8.0 nM) ([1]; 50 μM Zn2+) | NGF-induced TrkA phosphorylation ([2]; 100 μM, PC12 cells) | Basal TrkA phosphorylation ([2]; no NGF) | Antagonism of BDNF in vitro [3] | Inhibition of p75 Interaction ([4]; 20 μM peptide) | Inhibition of p75 Interaction ([4]; 200 μM peptide, listed as BC) | Covalent attachment of 125I-NGF to receptor (p75) ([4]; 200 μM, result in words)
[Zn+2] [Zn^2+] | 30.0 ± 13.3 % Maximum process bearing neur | 1.4 ± 1.4 % Maximum process bearing neur | prevented phosphorylation | no effect on basal TrkA phosphorylation | – | – | – | –
NH2 -Cys-Gly-Ser-Glu-Val-Pro-Asn-Ser-Ala-Arg-Cys-Cys-Val-Cys-OH (H-CGSEVPNSARCCVC-OH; disulfide 1-14, 11-12) [R11, bicyclic peptide of NGF residues 68-58/108-110, two disulfide bonds] | – | – | – | – | effective antagonist | + (indicates less than 50% inhibition) | ++ (indicates greater than 50% inhibition) | effectively prevented the covalent attachment
